O=C(Nc1ccc(Oc2ccnc3c2CCN3)c(F)c1)c1c[nH]cc(-c2ccc(F)cc2)c1=O
TRAE Urinary retention, any grade (400 mg BID (n=4)): 0 n (%) | TRAE Urinary retention, grade 3-4 (400 mg BID (n=4)): 0 n (%) | TRAE Urinary tract infection, any grade (400 mg BID (n=4)): 0 n (%) | TRAE Urinary tract infection, grade 3-4 (400 mg BID (n=4)): 0 n (%) | TRAE Ventricular arrhythmia, any grade (400 mg BID (n=4)): 0 n (%) | TRAE Ventricular arrhythmia, grade 3-4 (400 mg BID (n=4)): 0 n (%) | TRAE Ventricular extrasystoles, any grade (400 mg BID (n=4)): 0 n (%) | TRAE Ventricular extrasystoles, grade 3-4 (400 mg BID (n=4)): 0 n (%) | TRAE Vomiting, any grade (400 mg BID (n=4)): 1 (25.0) n (%) | TRAE Vomiting, grade 3-4 (400 mg BID (n=4)): 0 n (%) | TRAE Weight loss, any grade (400 mg BID (n=4)): 0 n (%) | TRAE Weight loss, grade 3-4 (400 mg BID (n=4)): 0 n (%) | TRAE Accessory nerve disorder, any grade (450 mg QD (n=12)): 0 n (%) | TRAE Accessory nerve disorder, grade 3-4 (450 mg QD (n=12)): 0 n (%) | TRAE Activated partial thromboplastin time prolonged, any grade (450 mg QD (n=12)): 1 (8.3) n (%) | TRAE Activated partial thromboplastin time prolonged, grade 3-4 (450 mg QD (n=12)): 0 n (%) | TRAE Anaemia, any grade (450 mg QD (n=12)): 1 (8.3) n (%) | TRAE Anaemia, grade 3-4 (450 mg QD (n=12)): 1 (8.3) n (%) | TRAE Anaesthesia oral, any grade (450 mg QD (n=12)): 0 n (%) | TRAE Anaesthesia oral, grade 3-4 (450 mg QD (n=12)): 0 n (%) | TRAE Arrhythmia, any grade (450 mg QD (n=12)): 0 n (%) | TRAE Arrhythmia, grade 3-4 (450 mg QD (n=12)): 0 n (%) | TRAE Arthralgia, any grade (450 mg QD (n=12)): 1 (8.3) n (%) | TRAE Arthralgia, grade 3-4 (450 mg QD (n=12)): 0 n (%) | TRAE Asthenia, any grade (450 mg QD (n=12)): 2 (16.7) n (%) | TRAE Asthenia, grade 3-4 (450 mg QD (n=12)): 0 n (%) | TRAE Blister, any grade (450 mg QD (n=12)): 1 (8.3) n (%) | TRAE Blister, grade 3-4 (450 mg QD (n=12)): 0 n (%) | TRAE Chest discomfort, any grade (450 mg QD (n=12)): 0 n (%) | TRAE Chest discomfort, grade 3-4 (450 mg QD (n=12)): 0 n (%) | TRAE Chronic kidney disease, any grade (450 mg QD (n=12)): 1 (8.3) n (%) | TRAE Chronic kidney disease, grade 3-4 (450 mg QD (n=12)): 0 n (%) | TRAE Constipation, any grade (450 mg QD (n=12)): 5 (41.7) n (%) | TRAE Constipation, grade 3-4 (450 mg QD (n=12)): 0 n (%) | TRAE Cough, any grade (450 mg QD (n=12)): 0 n (%) | TRAE Cough, grade 3-4 (450 mg QD (n=12)): 0 n (%) | TRAE Decreased Ccr, any grade (450 mg QD (n=12)): 2 (16.7) n (%) | TRAE Decreased Ccr, grade 3-4 (450 mg QD (n=12)): 0 n (%) | TRAE Decreased appetite, any grade (450 mg QD (n=12)): 2 (16.7) n (%) | TRAE Decreased appetite, grade 3-4 (450 mg QD (n=12)): 0 n (%) | TRAE Diarrhoea, any grade (450 mg QD (n=12)): 1 (8.3) n (%) | TRAE Diarrhoea, grade 3-4 (450 mg QD (n=12)): 0 n (%) | TRAE Dizziness, any grade (450 mg QD (n=12)): 0 n (%) | TRAE Dizziness, grade 3-4 (450 mg QD (n=12)): 0 n (%) | TRAE Dry mouth, any grade (450 mg QD (n=12)): 2 (16.7) n (%) | TRAE Dry mouth, grade 3-4 (450 mg QD (n=12)): 0 n (%) | TRAE Dysgeusia, any grade (450 mg QD (n=12)): 3 (25.0) n (%) | TRAE Dysgeusia, grade 3-4 (450 mg QD (n=12)): 0 n (%) | TRAE Dyskinesia, any grade (450 mg QD (n=12)): 0 n (%) | TRAE Dyskinesia, grade 3-4 (450 mg QD (n=12)): 0 n (%) | TRAE Dysphonia, any grade (450 mg QD (n=12)): 0 n (%) | TRAE Dysphonia, grade 3-4 (450 mg QD (n=12)): 0 n (%) | TRAE Dyspnoea, any grade (450 mg QD (n=12)): 0 n (%) | TRAE Dyspnoea, grade 3-4 (450 mg QD (n=12)): 0 n (%) | TRAE Electrocardiogram QT prolonged, any grade (450 mg QD (n=12)): 0 n (%) | TRAE Electrocardiogram QT prolonged, grade 3-4 (450 mg QD (n=12)): 0 n (%) | TRAE Elevated ALT, any grade (450 mg QD (n=12)): 5 (41.7) n (%) | TRAE Elevated ALT, grade 3-4 (450 mg QD (n=12)): 0 n (%) | TRAE Elevated AST, any grade (450 mg QD (n=12)): 5 (41.7) n (%) | TRAE Elevated AST, grade 3-4 (450 mg QD (n=12)): 0 n (%) | TRAE Elevated D dimer, any grade (450 mg QD (n=12)): 0 n (%) | TRAE Elevated D dimer, grade 3-4 (450 mg QD (n=12)): 0 n (%) | TRAE Elevated GGT, any grade (450 mg QD (n=12)): 0 n (%) | TRAE Elevated GGT, grade 3-4 (450 mg QD (n=12)): 0 n (%) | TRAE Elevated LDH, any grade (450 mg QD (n=12)): 0 n (%) | TRAE Elevated LDH, grade 3-4 (450 mg QD (n=12)): 0 n (%) | TRAE Elevated alpha-HBDH, any grade (450 mg QD (n=12)): 0 n (%) | TRAE Elevated alpha-HBDH, grade 3-4 (450 mg QD (n=12)): 0 n (%) | TRAE Elevated bilirubin, any grade (450 mg QD (n=12)): 0 n (%) | TRAE Elevated bilirubin, grade 3-4 (450 mg QD (n=12)): 0 n (%) | TRAE Elevated blood creatinine, any grade (450 mg QD (n=12)): 2 (16.7) n (%) | TRAE Elevated blood creatinine, grade 3-4 (450 mg QD (n=12)): 0 n (%) | TRAE Elevated creatine phosphokinase, any grade (450 mg QD (n=12)): 1 (8.3) n (%) | TRAE Elevated creatine phosphokinase, grade 3-4 (450 mg QD (n=12)): 0 n (%) | TRAE Elevated serum urea, any grade (450 mg QD (n=12)): 0 n (%) | TRAE Elevated serum urea, grade 3-4 (450 mg QD (n=12)): 0 n (%) | TRAE Elevated troponin, any grade (450 mg QD (n=12)): 1 (8.3) n (%) | TRAE Elevated troponin, grade 3-4 (450 mg QD (n=12)): 0 n (%) | TRAE Genital rash, any grade (450 mg QD (n=12)): 0 n (%) | TRAE Genital rash, grade 3-4 (450 mg QD (n=12)): 0 n (%) | TRAE Haematuria, any grade (450 mg QD (n=12)): 3 (25.0) n (%) | TRAE Haematuria, grade 3-4 (450 mg QD (n=12)): 0 n (%) | TRAE Headache, any grade (450 mg QD (n=12)): 0 n (%) | TRAE Headache, grade 3-4 (450 mg QD (n=12)): 0 n (%) | TRAE Hyperhidrosis, any grade (450 mg QD (n=12)): 1 (8.3) n (%)

— PMC10088252
